Experimental data taken from US12156871B2, “Substituted azacycles as muscarinic M1 receptor positive allosteric modulators” (SUVEN LIFE SCIENCES LIMITED, priority 2017, dated 2024).

Columns and labels:
[1] = target: T1, human Muscarinic M1 receptor (Homo sapiens, UniProt P11229); assay: Allosteric potency EC50 for muscarinic M1 receptor, CHO pCRE-Luc reporter cell assay; type: cell-based; conditions: in presence of EC20 of acetylcholine; CHO cells, luciferase reporter, 4 h
T1 sequence (P11229 1-460): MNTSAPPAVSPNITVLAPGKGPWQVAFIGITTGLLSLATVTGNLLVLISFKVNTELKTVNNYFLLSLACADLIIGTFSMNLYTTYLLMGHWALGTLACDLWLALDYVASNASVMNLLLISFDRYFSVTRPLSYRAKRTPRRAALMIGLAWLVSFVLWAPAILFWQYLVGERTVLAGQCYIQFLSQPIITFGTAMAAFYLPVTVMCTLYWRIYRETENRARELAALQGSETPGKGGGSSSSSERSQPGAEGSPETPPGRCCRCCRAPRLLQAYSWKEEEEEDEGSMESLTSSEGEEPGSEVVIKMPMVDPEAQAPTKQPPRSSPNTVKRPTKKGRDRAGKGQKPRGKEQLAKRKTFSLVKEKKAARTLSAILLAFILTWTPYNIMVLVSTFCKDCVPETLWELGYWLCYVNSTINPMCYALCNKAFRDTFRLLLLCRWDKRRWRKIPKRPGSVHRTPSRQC
Method: A stable CHO cell line expressing recombinant human Muscarinic M1 receptor and pCRE-Luc reporter system was used for cell-based assay. The assay offers a non-radioactive based approach to determine binding of a compound to GPCRs. In this specific assay, the level of intracellular cyclic AMP which is modulated by activation or inhibition of the receptor is measured. The recombinant cells harbor luciferase reporter gene under the control of cAMP response element.
The above cells were grown in 96 well clear bottom white plates in Hams F12 medium containing 10% fetal bovine serum (FBS). Prior to the addition of compounds or standard agonist, cells were serum starved overnight. Increasing concentrations of test compounds were added along with EC20 of acetylcholine in OptiMEM medium to the cells. The incubation was continued at 37° C. in CO2 incubator for 4 h. Medium was removed and cells were washed with phosphate buffered saline. The cells were lysed and luciferase activity was measured in a Luminometer. Luminescence units were plotted against the compound concentrations using Graphpad software. EC50 values of the compounds were defined as the concentration required in stimulating the luciferase activity by 50% in presence of EC20 of acetylcholine.

[2] = Rodent pharmacokinetic study; type: in vivo, Male Wistar rats; conditions: rat; for AUC(0-t) / clearance / half-life / Cmax: male, Wistar, plasma; for F: oral 3 mg/kg vs i.v. 1 mg/kg
Method: Male Wistar rats (260±50 grams) were used as experimental animals. Animals were housed individually in polypropylene cage. Two days prior to study, male Wistar rats were anesthetized with isoflurane for surgical placement of jugular vein catheter. Rats were randomly divided for oral (3 mg/kg) and intravenous (i.v) (1 mg/kg) dosing (n=3/group) and fasted overnight before oral dosing (p.o.). However, rats allocated to intravenous (i.v.) dosing food and water was provided ad libitum.
At pre-determined point, blood was collected through jugular vein and replenished with an equivalent volume of normal saline. Collected blood was transferred into a labeled eppendorf tube containing 10 μL of heparin as an anticoagulant. Typically blood samples were collected at following time points: 0.08, 0.25, 0.5, 1, 2, 4, 6, 8, and 24 h post dose. Blood was centrifuged at 4000 rpm for 10 minutes. Plasma was separated and stored frozen at −80° C. until analysis. The concentrations of the test compounds were quantified in plasma by qualified LC-MS/MS method using suitable extraction technique. The test compounds were quantified in the calibration range around 1-1000 ng/mL in plasma. Study samples were analyzed using calibration samples in the batch and quality control samples spread across the batch.
Pharmacokinetic parameters Cmax, AUCt, T1/2, clearance and bioavailability (F) were calculated by non-compartmental model using standard non-compartmental model by using Phoenix WinNonlin 6.0.2 or 6.0.3 version Software package and the results are tabulated below.

[3] = Protein binding assay (HT dialysis), rat liver microsomes; type: in vitro ADME; conditions: pH 7.4, Rat liver microsomes 0.5 mg/mL, Mean ± SEM, n = 3, read-out: Fu Microsomes
Method: (§1) Unbound fractions of test compounds in plasma, brain homogenate and liver microsomes were determined using high-throughput dialysis (HT dialysis). Briefly, dialysis membranes were soaked in deionized water for 20 minutes and then in deionized water with 30% ethanol for 15 minutes and finally in phosphate buffer until use. Membranes were rinsed in phosphate buffer before assembling. The membranes were layered between teflon bars of dialysis assembly. Stock solutions of test compound/comparative compound were prepared at 10 mM in DMSO, diluted to 1 mM in acetonitrile and further diluted to 100 μM in mixture of water and acetonitrile (1:1 v/v). Human plasma (pool of 3) was prepared from human blood (3 donors) by centrifuging at 4000 rpm for 10 min at 4° C. Rat and dog blood were obtained on the day of the study and centrifuged to obtain plasma. Rat brains were isolated, cleaned and homogenized with 2 volumes of buffer (3 fold dilution). Liver microsomes were prepared at 0.5 mg/mL in phosphate buffer (100 mM, pH 7.4). The dialysate chambers were loaded with 150 μL of 100 mM phosphate buffer (pH 7.4) in triplicates. The matrix chambers were loaded with 150 μL of the plasma or brain homogenate or microsomal suspension spiked with test compound/comparative compound at a final concentration of 1 μM. 50 μL of the sample was removed from both the chambers at 0 h. The plate was sealed and incubated at 37° C. for 6 h at 100 rpm. After 6 h, 50 μL of the sample was removed from both the chambers. Equal volumes of buffer or human plasma/microsomal suspension were added to the plasma/microsomal and buffer samples respectively to create identical sample matrices for analysis. The samples were precipitated with 150 μL of acetonitrile containing fluoxetine as an internal standard. All the samples were centrifuged at 10000 rpm for 10 minutes at 4° C.

[4] = Protein binding assay (HT dialysis), dog liver microsomes; type: in vitro ADME; conditions: pH 7.4, Dog liver microsomes 0.5 mg/mL, Mean ± SEM, n = 3, read-out: Fu Microsomes (converted)
Method: as §1

[5] = test system: hippocampal theta oscillations; assay: Theta modulation in dorsal hippocampus of anesthetized rats in combination with donepezil; type: in vivo, Male Wistar rats; conditions: in combination with donepezil (0.3 mg/kg, i.v.), test compound 1 mg/kg

EC50 [1] [nM] | AUC(0-t) ([2]; iv, i.v. 1 mg/kg) [ng·h/mL] | clearance ([2]; iv, i.v. 1 mg/kg) [mL/min/kg] | half-life ([2]; iv, i.v. 1 mg/kg) [min] | AUC(0-t) ([2]; oral 3 mg/kg) [ng·h/mL] | Cmax ([2]; oral 3 mg/kg) [ng/mL] | half-life ([2]; oral 3 mg/kg) [min] | F [2] [%] | fraction unbound at 6 h, 1 μM [3] | fraction unbound at 6 h, 1 μM [4] | Structure (SMILES) | effect of combination treatment on θ power compared with donepezil alone ([5]; FIG. 1) | θ power levels ([5]; anesthetized rat)
2280 | 662 ± 33 | 25.1 ± 1.2 | 30 | 1010 | 861 ± 168 | 36 ± 6 | 51 ± 17 | 0.826 ± 0.03 | 0.843 | COc1cccc(Cc2cc3c(nc2C)CN([C@H]2CCCC[C@@H]2O)C3=O)c1 [Example 38, 6-(1S,2S-2-Hydroxycyclohexyl)-2-methyl-3-(3-methoxybenzyl)-6,7-dihydropyrrolo[3,4-b]pyridin-5-one] | significantly higher than the donepezil alone | significant increase
954 | 1750 ± 312 | 9.3 ± 2 | 114 ± 30 | 3520 | 1470 ± 26.5 | 78 ± 6 | 67 ± 5 | 0.798 ± 0.12 | 0.906 | COc1ccc(Cc2cc3c(nc2C)CN([C@H]2CCCC[C@@H]2O)C3=O)cc1 [Example 6, 6-(1S,2S-2-Hydroxycyclohexyl)-2-methyl-3-(4-methoxybenzyl)-6,7-dihydropyrrolo[3,4-b]pyridin-5-one] | – | –
